In the NIST ThermoML archive (doi:10.1016/j.jct.2003.09.004):
Numbers after ± are expanded uncertainties.

Key:
[1] = 298.15 K, 101.33 kPa, Liquid
[2] = excess molar enthalpy (molar enthalpy of mixing); xn = mol fraction of the nth substance listed; details: 298.15 K, 101.33 kPa, Liquid, Flow calorimetry

Q: With `CC(C)CC(C)(C)C` [2,2,4-trimethylpentane] as the molecule, how does the mass density ([1]; Vibrating tube method) read?
A: The mass density was 688.03 ± 0.4 kg/m3.

Q: With `CC(C)C(C)C` [2,3-dimethylbutane] as the molecule, how does the mass density [1] read?
A: Its mass density is 662.36 ± 3.1 kg/m3.

Q: With `CCC(C)(C)C` [2,2-dimethylbutane] + C=CCCCC as the molecule, how does the excess molar enthalpy ([2]; x2 = 0.05) read?
A: Its excess molar enthalpy is 0.00286 ± 0.00021 kcal/mol.

Q: And the excess molar enthalpy ([2]; x2 = 0.1)?
A: The excess molar enthalpy was 0.0056 ± 0.000232 kcal/mol.

Q: What about the excess molar enthalpy ([2]; x2 = 0.1576) of the same molecule?
A: Its excess molar enthalpy is 0.00829 ± 0.000239 kcal/mol.

Q: And the excess molar enthalpy ([2]; x2 = 0.2005)?
A: The excess molar enthalpy was 0.01 ± 0.000263 kcal/mol.

Q: What about the excess molar enthalpy ([2]; x2 = 0.2501) of the same molecule?
A: The excess molar enthalpy was 0.0116 ± 0.000287 kcal/mol.

Q: And the excess molar enthalpy ([2]; x2 = 0.3002)?
A: Its excess molar enthalpy is 0.0129 ± 0.000287 kcal/mol.

Q: And the excess molar enthalpy ([2]; x2 = 0.3501)?
A: The excess molar enthalpy was 0.0138 ± 0.000287 kcal/mol.

Q: What about the excess molar enthalpy ([2]; x2 = 0.4002) of the same molecule?
A: Its excess molar enthalpy is 0.0145 ± 0.000311 kcal/mol.

Q: What about the excess molar enthalpy ([2]; x2 = 0.4507) of the same molecule?
A: The excess molar enthalpy was 0.0149 ± 0.000311 kcal/mol.

Q: And the excess molar enthalpy ([2]; x2 = 0.4999)?
A: The excess molar enthalpy was 0.0149 ± 0.000311 kcal/mol.

Q: And the excess molar enthalpy ([2]; x2 = 0.5498)?
A: The excess molar enthalpy was 0.0147 ± 0.000311 kcal/mol.

Q: What about the excess molar enthalpy ([2]; x2 = 0.5996) of the same molecule?
A: Its excess molar enthalpy is 0.0142 ± 0.000287 kcal/mol.

Q: What about the excess molar enthalpy ([2]; x2 = 0.6496) of the same molecule?
A: The excess molar enthalpy was 0.0134 ± 0.000287 kcal/mol.

Q: And the excess molar enthalpy ([2]; x2 = 0.7)?
A: Its excess molar enthalpy is 0.0124 ± 0.000287 kcal/mol.

Q: And the excess molar enthalpy ([2]; x2 = 0.7501)?
A: Its excess molar enthalpy is 0.0109 ± 0.000263 kcal/mol.

Q: What about the excess molar enthalpy ([2]; x2 = 0.7999) of the same molecule?
A: The excess molar enthalpy was 0.00973 ± 0.000263 kcal/mol.

Q: What about the excess molar enthalpy ([2]; x2 = 0.85) of the same molecule?
A: The excess molar enthalpy was 0.00798 ± 0.000239 kcal/mol.

Q: What about the excess molar enthalpy ([2]; x2 = 0.9) of the same molecule?
A: The excess molar enthalpy was 0.00524 ± 0.000229 kcal/mol.

Q: What about the excess molar enthalpy ([2]; x2 = 0.95) of the same molecule?
A: Its excess molar enthalpy is 0.00272 ± 0.000208 kcal/mol.

Q: Which excess molar enthalpy ([2]; x2 = 0.05) does the source give for `CC(C)C(C)C` [2,3-dimethylbutane] + C=CCCCC here?
A: The excess molar enthalpy was 0.00357 ± 0.000217 kcal/mol.

Q: And the excess molar enthalpy ([2]; x2 = 0.1001)?
A: The excess molar enthalpy was 0.00689 ± 0.000239 kcal/mol.

Q: And the excess molar enthalpy ([2]; x2 = 0.1535)?
A: The excess molar enthalpy was 0.0101 ± 0.000263 kcal/mol.

Q: What about the excess molar enthalpy ([2]; x2 = 0.2) of the same molecule?
A: The excess molar enthalpy was 0.0124 ± 0.000287 kcal/mol.

Q: What about the excess molar enthalpy ([2]; x2 = 0.2508) of the same molecule?
A: The excess molar enthalpy was 0.0147 ± 0.000311 kcal/mol.

Q: And the excess molar enthalpy ([2]; x2 = 0.2997)?
A: The excess molar enthalpy was 0.0162 ± 0.000311 kcal/mol.

Q: And the excess molar enthalpy ([2]; x2 = 0.3499)?
A: Its excess molar enthalpy is 0.0175 ± 0.000335 kcal/mol.

Q: What about the excess molar enthalpy ([2]; x2 = 0.3997) of the same molecule?
A: Its excess molar enthalpy is 0.0186 ± 0.000335 kcal/mol.

Q: What about the excess molar enthalpy ([2]; x2 = 0.4498) of the same molecule?
A: The excess molar enthalpy was 0.019 ± 0.000335 kcal/mol.

Q: And the excess molar enthalpy ([2]; x2 = 0.4998)?
A: Its excess molar enthalpy is 0.0189 ± 0.000335 kcal/mol.

Q: What about the excess molar enthalpy ([2]; x2 = 0.5498) of the same molecule?
A: Its excess molar enthalpy is 0.0186 ± 0.000335 kcal/mol.

Q: What about the excess molar enthalpy ([2]; x2 = 0.5996) of the same molecule?
A: Its excess molar enthalpy is 0.0179 ± 0.000335 kcal/mol.

Q: And the excess molar enthalpy ([2]; x2 = 0.6497)?
A: The excess molar enthalpy was 0.0169 ± 0.000311 kcal/mol.

Q: What about the excess molar enthalpy ([2]; x2 = 0.6997) of the same molecule?
A: The excess molar enthalpy was 0.0154 ± 0.000311 kcal/mol.

Q: What about the excess molar enthalpy ([2]; x2 = 0.7498) of the same molecule?
A: Its excess molar enthalpy is 0.0136 ± 0.000287 kcal/mol.

Q: And the excess molar enthalpy ([2]; x2 = 0.8001)?
A: The excess molar enthalpy was 0.0117 ± 0.000287 kcal/mol.

Q: What about the excess molar enthalpy ([2]; x2 = 0.8501) of the same molecule?
A: The excess molar enthalpy was 0.00924 ± 0.000263 kcal/mol.

Q: And the excess molar enthalpy ([2]; x2 = 0.9)?
A: The excess molar enthalpy was 0.00639 ± 0.000237 kcal/mol.

Q: And the excess molar enthalpy ([2]; x2 = 0.9499)?
A: Its excess molar enthalpy is 0.00332 ± 0.000215 kcal/mol.

Q: Which excess molar enthalpy ([2]; x2 = 0.0501) does the source give for `CCC(C)CC` [3-methylpentane] + C=CCCCC here?
A: Its excess molar enthalpy is 0.00244 ± 0.000206 kcal/mol.

Q: And the excess molar enthalpy ([2]; x2 = 0.1001)?
A: The excess molar enthalpy was 0.00478 ± 0.000225 kcal/mol.

Q: And the excess molar enthalpy ([2]; x2 = 0.1533)?
A: The excess molar enthalpy was 0.00687 ± 0.000239 kcal/mol.

Q: What about the excess molar enthalpy ([2]; x2 = 0.2001) of the same molecule?
A: The excess molar enthalpy was 0.00842 ± 0.000239 kcal/mol.

Q: What about the excess molar enthalpy ([2]; x2 = 0.2501) of the same molecule?
A: The excess molar enthalpy was 0.00987 ± 0.000263 kcal/mol.

Q: What about the excess molar enthalpy ([2]; x2 = 0.3) of the same molecule?
A: Its excess molar enthalpy is 0.0111 ± 0.000263 kcal/mol.

Q: What about the excess molar enthalpy ([2]; x2 = 0.3495) of the same molecule?
A: The excess molar enthalpy was 0.0119 ± 0.000287 kcal/mol.

Q: And the excess molar enthalpy ([2]; x2 = 0.3995)?
A: Its excess molar enthalpy is 0.0126 ± 0.000287 kcal/mol.

Q: And the excess molar enthalpy ([2]; x2 = 0.45)?
A: The excess molar enthalpy was 0.013 ± 0.000287 kcal/mol.

Q: What about the excess molar enthalpy ([2]; x2 = 0.4995) of the same molecule?
A: The excess molar enthalpy was 0.0131 ± 0.000287 kcal/mol.

Q: What about the excess molar enthalpy ([2]; x2 = 0.5498) of the same molecule?
A: The excess molar enthalpy was 0.0129 ± 0.000287 kcal/mol.

Q: What about the excess molar enthalpy ([2]; x2 = 0.5997) of the same molecule?
A: Its excess molar enthalpy is 0.0125 ± 0.000287 kcal/mol.

Q: What about the excess molar enthalpy ([2]; x2 = 0.6501) of the same molecule?
A: The excess molar enthalpy was 0.0119 ± 0.000287 kcal/mol.

Q: And the excess molar enthalpy ([2]; x2 = 0.6994)?
A: Its excess molar enthalpy is 0.0109 ± 0.000263 kcal/mol.

Q: And the excess molar enthalpy ([2]; x2 = 0.7509)?
A: Its excess molar enthalpy is 0.00972 ± 0.000263 kcal/mol.

Q: And the excess molar enthalpy ([2]; x2 = 0.7999)?
A: Its excess molar enthalpy is 0.00839 ± 0.000239 kcal/mol.

Q: And the excess molar enthalpy ([2]; x2 = 0.85)?
A: Its excess molar enthalpy is 0.00659 ± 0.000239 kcal/mol.

Q: And the excess molar enthalpy ([2]; x2 = 0.9)?
A: The excess molar enthalpy was 0.00455 ± 0.000222 kcal/mol.

Q: What about the excess molar enthalpy ([2]; x2 = 0.95) of the same molecule?
A: Its excess molar enthalpy is 0.00235 ± 0.000206 kcal/mol.

Q: With `C=CCCCC` [hex-1-ene] as the molecule, how does the mass density [1] read?
A: The mass density was 668.73 ± 0.91 kg/m3.

Q: What does the source list for `C=CCCCC` [hex-1-ene] + CC(C)CC(C)(C)C?
A: excess molar enthalpy ([2]; x1 = 0.0501): 0.0024 ± 0.000206 kcal/mol; excess molar enthalpy ([2]; x1 = 0.1001): 0.00448 ± 0.000222 kcal/mol; excess molar enthalpy ([2]; x1 = 0.1501): 0.00647 ± 0.000237 kcal/mol; excess molar enthalpy ([2]; x1 = 0.2075): 0.00837 ± 0.000239 kcal/mol; excess molar enthalpy ([2]; x1 = 0.2499): 0.00967 ± 0.000263 kcal/mol; excess molar enthalpy ([2]; x1 = 0.2998): 0.0109 ± 0.000263 kcal/mol; excess molar enthalpy ([2]; x1 = 0.35): 0.0119 ± 0.000287 kcal/mol; excess molar enthalpy ([2]; x1 = 0.3998): 0.0128 ± 0.000287 kcal/mol; excess molar enthalpy ([2]; x1 = 0.4498): 0.013 ± 0.000287 kcal/mol; excess molar enthalpy ([2]; x1 = 0.4998): 0.0134 ± 0.000287 kcal/mol; excess molar enthalpy ([2]; x1 = 0.5497): 0.0134 ± 0.000287 kcal/mol; excess molar enthalpy ([2]; x1 = 0.5997): 0.0131 ± 0.000287 kcal/mol; excess molar enthalpy ([2]; x1 = 0.6499): 0.0125 ± 0.000287 kcal/mol; excess molar enthalpy ([2]; x1 = 0.6997): 0.0117 ± 0.000287 kcal/mol; excess molar enthalpy ([2]; x1 = 0.75): 0.0105 ± 0.000263 kcal/mol; excess molar enthalpy ([2]; x1 = 0.7994): 0.00905 ± 0.000263 kcal/mol; excess molar enthalpy ([2]; x1 = 0.8498): 0.0074 ± 0.000239 kcal/mol; excess molar enthalpy ([2]; x1 = 0.9): 0.00524 ± 0.000227 kcal/mol; excess molar enthalpy ([2]; x1 = 0.95): 0.00273 ± 0.00021 kcal/mol

Q: With `CCC(C)CC` [3-methylpentane] as the molecule, how does the mass density [1] read?
A: Its mass density is 659.94 ± 0.92 kg/m3.

Q: For `CCC(C)(C)C` [2,2-dimethylbutane], which mass density [1] is on record?
A: The mass density was 644.92 ± 0.95 kg/m3.

Q: For `CCCC(C)C` [2-methylpentane], which mass density [1] is on record?
A: The mass density was 650.22 ± 0.94 kg/m3.

Q: Which excess molar enthalpy ([2]; x2 = 0.0501) does the source give for `CCCC(C)C` [2-methylpentane] + C=CCCCC here?
A: Its excess molar enthalpy is 0.00256 ± 0.000208 kcal/mol.

Q: What about the excess molar enthalpy ([2]; x2 = 0.1) of the same molecule?
A: Its excess molar enthalpy is 0.00496 ± 0.000227 kcal/mol.

Q: And the excess molar enthalpy ([2]; x2 = 0.1504)?
A: Its excess molar enthalpy is 0.00721 ± 0.000239 kcal/mol.

Q: And the excess molar enthalpy ([2]; x2 = 0.2)?
A: Its excess molar enthalpy is 0.00904 ± 0.000263 kcal/mol.

Q: And the excess molar enthalpy ([2]; x2 = 0.2499)?
A: The excess molar enthalpy was 0.0106 ± 0.000263 kcal/mol.

Q: And the excess molar enthalpy ([2]; x2 = 0.3001)?
A: The excess molar enthalpy was 0.0119 ± 0.000287 kcal/mol.

Q: And the excess molar enthalpy ([2]; x2 = 0.3495)?
A: Its excess molar enthalpy is 0.0128 ± 0.000287 kcal/mol.

Q: What about the excess molar enthalpy ([2]; x2 = 0.4001) of the same molecule?
A: The excess molar enthalpy was 0.0135 ± 0.000287 kcal/mol.

Q: And the excess molar enthalpy ([2]; x2 = 0.4498)?
A: Its excess molar enthalpy is 0.0139 ± 0.000287 kcal/mol.

Q: What about the excess molar enthalpy ([2]; x2 = 0.4997) of the same molecule?
A: The excess molar enthalpy was 0.014 ± 0.000287 kcal/mol.

Q: What about the excess molar enthalpy ([2]; x2 = 0.5501) of the same molecule?
A: The excess molar enthalpy was 0.0139 ± 0.000287 kcal/mol.

Q: And the excess molar enthalpy ([2]; x2 = 0.6)?
A: Its excess molar enthalpy is 0.0135 ± 0.000287 kcal/mol.

Q: And the excess molar enthalpy ([2]; x2 = 0.6501)?
A: Its excess molar enthalpy is 0.0128 ± 0.000287 kcal/mol.

Q: What about the excess molar enthalpy ([2]; x2 = 0.6993) of the same molecule?
A: Its excess molar enthalpy is 0.0118 ± 0.000287 kcal/mol.

Q: What about the excess molar enthalpy ([2]; x2 = 0.7503) of the same molecule?
A: The excess molar enthalpy was 0.0104 ± 0.000263 kcal/mol.

Q: What about the excess molar enthalpy ([2]; x2 = 0.8001) of the same molecule?
A: Its excess molar enthalpy is 0.00938 ± 0.000263 kcal/mol.

Q: And the excess molar enthalpy ([2]; x2 = 0.8575)?
A: Its excess molar enthalpy is 0.00688 ± 0.000239 kcal/mol.

Q: And the excess molar enthalpy ([2]; x2 = 0.9)?
A: The excess molar enthalpy was 0.00513 ± 0.000227 kcal/mol.

Q: What about the excess molar enthalpy ([2]; x2 = 0.95) of the same molecule?
A: Its excess molar enthalpy is 0.00269 ± 0.000208 kcal/mol.
